Laboratory results reported in PMC6563140, “Azaphilones from the Marine Sponge-Derived Fungus Penicillium sclerotiorum OUCMDZ-3839” (Marine Drugs, 2019).

Columns and labels:
α-glycosidase [1] = assay: PNPG enzyme inhibition assay, reference inhibitor; assay type: biochemical
α-glycosidase [2] = assay: PNPG enzyme inhibition assay; assay type: biochemical

IC50 (α-glycosidase [2]) [µM] | SMILES | IC50 (α-glycosidase [1]) [µM]
 | C[C@H]1O[C@H](O[C@H]2[C@H](O)[C@@H](O)[C@@H](O[C@H]3[C@H](O)[C@@H](O)C(O)O[C@@H]3CO)O[C@@H]2CO)[C@H](O)[C@@H](O)[C@@H]1N[C@H]1C=C(CO)[C@@H](O)[C@H](O)[C@H]1O (stereo partly drawn) [acarbose] | 1100
17.3 | CC[C@H](C)/C=C(C)/C=C/C1=CC2=C(Cl)C(=O)[C@]3(C)OC(=O)[C@@H](C(C)=O)[C@@H]3C2=CO1 [compound 11, isochromophilone I] | 
166 | CC[C@H](C)/C=C(C)/C=C/C1=CC2=C(Cl)C(=O)[C@](C)(OC(C)=O)C(=O)C2=CN1 [compound 14, scleratioramine] | 
